Laboratory results reported in patent US20110105496A1, “Methods For The Treatment Of Myosin Heavy Chain-Mediated Conditions Using 4,7-Dihydrothieno[2,3-B]Pyridine Compounds” (priority 2005, published 2011).

Test system: alpha-MyHC
Experiment: alpha-MyHC cytoblot process in neonatal rat ventricular myocytes (NRVM)
Format: cell-based
Settings: Table 1, NRVM, 72 hours; for EC50: alpha-MyHC cytoblot, mean ± spread; for Max Plateau: maximum of dose response fit, low control = vehicle only
Method: In vitro activity of each compound is measured using the alpha-MyHC cytoblot process. Briefly, neonatal rat ventricular myocytes (NRVM) at 120,000 cells/ml in HyQ DME/High modified culture media supplemented with 10% charcoal/dextran treated FBS, 0.1% Nutridoma-SP, 1:100 MEM non-essential amino acids, 1:50 MEM amino acids solution w/o L-Gln, 1 mM sodium pyruvate and 1:100 P/S/G, are plated on gelatin coated sterile 384-well plates (Costar 3712) at 6,000 cells per well. Cells are incubated overnight at 37° C. in 5% CO2 100% humidity. Following overnight growth the media is changed to HyQ DME/High modified culture media supplemented with 0.3% Nutridoma-SP, 1:100 MEM non-essential amino acids, 1:50 MEM amino acids solution w/o L-Gln, 1 mM sodium pyruvate and 1:100 P/S/G. Cells are then dosed with serial dilutions of each compound in DMSO. Each concentration in the dose range is dosed in quadruplicate. Dosing is done in such a way so that the final DMSO concentration was 0.44%. Compound dilutions are 3-fold with the final top concentration of 10 uM. […] Following dosing, the cells are incubated for 72 hours at 37° C. in 5% CO2 100% humidity and then processed with the cytoblot method. Briefly, cell media is aspirated and cell monolayers washed with PBS and fixed with 100% methanol for 30 minutes. Fixed cells are then blocked with PBS, 0.05% Tween-20, 1% BSA, for 1 hour. Following blocking, cells are incubated with primary alpha-MyHC-specific antibody antibody (1:30 dilution of BA-G5 hybridoma conditioned media, ATCC HB276) for 1 hour. Following incubation with the primary antibody, cells are washed with PBS, 0.05% Tween-20, 1% BSA and incubated with secondary antibody (1:1000 dilution, goat-anti-mouse HRP, Southern Biotech, 1031-05) for 1 hour. Following incubation with the secondary antibody, wells are washed and incubated in SuperSignal, West Dura HRP-luminescence substrate for 30 seconds under shaking at room temperature. Luminescence is measured using a Packard Fusion plate reader. […] RLU values are converted into per cent fraction of low control and dose responses are fitted to a sigmoidal 4-parameter equation (XLFit, IDBS) where the EC50 and Max Plateau values were extracted. […] Max Plateau is the […] maximum value determined by the dose response fit.

SMILES	EC50	Max Plateau
CCC(=O)C1=C(CC)Nc2sc(C(=O)c3cccc(Cl)c3)c(N)c2C1c1ccccc1 (stereo not drawn) [Compound 66]	4.94 nM	306.19 ± 54.21 per cent fraction of low control
CCC(=O)C1=C(CC)Nc2sc(C(=O)c3ccccc3F)c(N)c2C1c1ccccc1 (stereo not drawn) [Compound 67]	12.1 nM	256.12 ± 53.66 per cent fraction of low control
CCC(=O)C1=C(CC)Nc2sc(C(=O)c3ccccc3)c(N)c2C1c1cccnc1 (stereo not drawn) [Compound 68]	233 nM	175.88 ± 14.54 per cent fraction of low control
CCC(=O)C1=C(CC)Nc2sc(C(=O)c3ccccc3)c(N)c2C1c1c(F)cccc1F (stereo not drawn) [Compound 69]	31.7 nM	221.36 ± 15.94 per cent fraction of low control
CCC(=O)C1=C(CC)Nc2sc(C(=O)c3ccc(Cl)cc3Cl)c(N)c2C1c1ccccc1 (stereo not drawn) [Compound 70]	51.7 nM	191.97 ± 13.09 per cent fraction of low control
CCC(=O)C1=C(CC)Nc2sc(C(=O)c3ccc4c(c3)OCO4)c(N)c2C1c1ccccc1F (stereo not drawn) [Compound 71]	57.5 nM	223.30 ± 32.84 per cent fraction of low control
CCC(=O)C1=C(CC)Nc2sc(C(=O)c3ccc(F)c(F)c3)c(N)c2C1c1ccccc1 (stereo not drawn) [Compound 72]	9.23 nM	223.99 ± 24.51 per cent fraction of low control
CCC(=O)C1=C(CC)Nc2sc(C(=O)c3cc(C(F)(F)F)cc(C(F)(F)F)c3)c(N)c2C1c1ccccc1 (stereo not drawn) [Compound 73]	8.92 nM	205.27 ± 38.78 per cent fraction of low control
CCC(=O)C1=C(CC)Nc2sc(C(=O)c3cccc(C(=O)OC)c3)c(N)c2C1c1ccccc1 (stereo not drawn) [Compound 74]	9.84 nM	262.81 ± 32.38 per cent fraction of low control
CCC(=O)C1=C(CC)Nc2sc(C(=O)c3ccc(Cl)c(Cl)c3)c(N)c2C1c1cccnc1 (stereo not drawn) [Compound 75]	61.3 nM	226.71 ± 40.80 per cent fraction of low control
CCC(=O)C1=C(CC)Nc2sc(C(=O)c3cc(F)cc(F)c3)c(N)c2C1c1ccccc1 (stereo not drawn) [Compound 76]	24.2 nM	230.70 ± 23.22 per cent fraction of low control
CCC(=O)C1=C(CC)Nc2sc(C(=O)c3cccc(C(=O)O)c3)c(N)c2C1c1ccccc1 (stereo not drawn) [Compound 77]	2140 nM	220.00 ± 10.00 per cent fraction of low control
CCC(=O)C1=C(CC)Nc2sc(C(=O)c3ccccc3)c(N)c2C1c1ccccc1F (stereo not drawn) [Compound 78]	6.77 nM	269.77 ± 35.30 per cent fraction of low control
CCC(=O)C1=C(CC)Nc2sc(C(=O)c3ccc(F)cc3)c(N)c2C1c1ccccc1 (stereo not drawn) [Compound 79]	40.8 nM	241.90 ± 15.79 per cent fraction of low control
CCC(=O)C1=C(CC)Nc2sc(C(=O)c3ccc(Cl)cc3)c(N)c2C1c1ccccc1 (stereo not drawn) [Compound 80]	103 nM	226.13 ± 5.25 per cent fraction of low control
CCC(=O)C1=C(CC)Nc2sc(C(=O)c3ccc(Cl)c(Cl)c3)c(N)c2C1c1ccc(OC)cc1F (stereo not drawn) [Compound 81]	350 nM	184.00 ± 15.51 per cent fraction of low control
CCC(=O)C1=C(CC)Nc2sc(C(=O)c3ccccc3Cl)c(N)c2C1c1ccccc1 (stereo not drawn) [Compound 82]	14.8 nM	245.96 ± 30.73 per cent fraction of low control

SMILES	EC50	Max Plateau
CCC(=O)C1=C(CC)Nc2sc(C(=O)c3ccc(Cl)c(Cl)c3)c(N)c2C1c1ccc(O)cc1Cl (stereo not drawn) [Compound 83]	0.249 nM	274.88 ± 44.56 per cent fraction of low control
CCC(=O)C1=C(CC)Nc2sc(C(=O)c3ccc(Cl)c(Cl)c3)c(N)c2C1c1cccc(F)c1 (stereo not drawn) [Compound 84]	5.4 nM	242.72 ± 19.34 per cent fraction of low control
CCC(=O)C1=C(CC)Nc2sc(C(=O)c3ccc(Cl)c(Cl)c3)c(N)c2C1c1cccc2ccccc12 (stereo not drawn) [Compound 85]		105.90 ± 6.18 per cent fraction of low control
CCCC(=O)C1=C(CCC)Nc2sc(C(=O)c3ccc(Cl)c(Cl)c3)c(N)c2C1c1ccccc1 (stereo not drawn) [Compound 86]	627 nM	131.26 ± 2.34 per cent fraction of low control
CCCC(=O)C1=C(CCC)Nc2sc(C(=O)c3ccc(Cl)c(Cl)c3)c(N)c2C1c1ccccc1F (stereo not drawn) [Compound 87]	217 nM	187.66 ± 12.24 per cent fraction of low control
CCC(=O)C1=C(CC)Nc2sc(C(=O)c3ccc(Cl)c(Cl)c3)c(N)c2C1c1ccc2ccccc2c1 (stereo not drawn) [Compound 88]		113.45 ± 11.92 per cent fraction of low control
CCC(=O)C1=C(CC)Nc2sc(C(=O)c3ccc(Cl)c(C)c3)c(N)c2C1c1ccccc1 (stereo not drawn) [Compound 89]	9.69 nM	230.09 ± 19.81 per cent fraction of low control
CCC(=O)C1=C(CC)Nc2sc(C(=O)c3cc(C(C)(C)C)c(O)c(C(C)(C)C)c3)c(N)c2C1c1ccccc1 (stereo not drawn) [Compound 90]		300.00 ± 0.00 per cent fraction of low control
CCCC(=O)C1=C(CCC)Nc2sc(C(=O)c3ccc(Cl)cc3Cl)c(N)c2C1c1ccccc1F (stereo not drawn) [Compound 91]	198 nM	143.39 ± 20.69 per cent fraction of low control
CCCC(=O)C1=C(CCC)Nc2sc(C(=O)c3cc(Cl)ccc3Cl)c(N)c2C1c1ccccc1F (stereo not drawn) [Compound 92]	50.5 nM	189.00 ± 25.40 per cent fraction of low control
CCCC(=O)C1=C(CCC)Nc2sc(C(=O)c3cc(Cl)ccc3Cl)c(N)c2C1c1ccccc1 (stereo not drawn) [Compound 94]	118 nM	153.83 ± 13.14 per cent fraction of low control
CCCC(=O)C1=C(CCC)Nc2sc(C(=O)c3ccc(F)c(F)c3)c(N)c2C1c1ccccc1 (stereo not drawn) [Compound 95]	610 nM	147.01 ± 6.43 per cent fraction of low control
CCC(=O)C1=C(CC)Nc2sc(C(=O)c3cccc([N+](=O)[O-])c3)c(N)c2C1c1ccccc1 (stereo not drawn) [Compound 96]	17.1 nM	254.87 ± 72.67 per cent fraction of low control
CCC(=O)C1=C(CC)Nc2sc(C(=O)c3cccc([N+](=O)[O-])c3)c(N)c2C1c1ccccc1F (stereo not drawn) [Compound 97]	1.64 nM	247.24 ± 38.88 per cent fraction of low control
CCC(=O)C1=C(CC)Nc2sc(C(=O)c3ccc(Cl)c(Cl)c3)c(N)c2C1c1ccnc(F)c1 (stereo not drawn) [Compound 98]	4.99 nM	255.02 ± 32.01 per cent fraction of low control
CCC(=O)C1=C(CC)Nc2sc(C(=O)c3ccc(Cl)c(Cl)c3)c(N)c2C1c1ccnc(Cl)c1 (stereo not drawn) [Compound 99]	5.23 nM	264.37 ± 33.84 per cent fraction of low control
